Like-named read-outs stand apart in the source and are kept apart here.
Legend:
Type in all cases: biochemical
ITK = target: T1, ITK (Homo sapiens, UniProt Q08881); experiment: Inhibition of a panel of kinases, in vitro HotSpot kinase assay: ITK; details: for IC50: 1 μM ATP; for ITK* IC50 relative to Btk IC50 value: fold relative to Btk IC50 value
T1 sequence (Q08881 1-620): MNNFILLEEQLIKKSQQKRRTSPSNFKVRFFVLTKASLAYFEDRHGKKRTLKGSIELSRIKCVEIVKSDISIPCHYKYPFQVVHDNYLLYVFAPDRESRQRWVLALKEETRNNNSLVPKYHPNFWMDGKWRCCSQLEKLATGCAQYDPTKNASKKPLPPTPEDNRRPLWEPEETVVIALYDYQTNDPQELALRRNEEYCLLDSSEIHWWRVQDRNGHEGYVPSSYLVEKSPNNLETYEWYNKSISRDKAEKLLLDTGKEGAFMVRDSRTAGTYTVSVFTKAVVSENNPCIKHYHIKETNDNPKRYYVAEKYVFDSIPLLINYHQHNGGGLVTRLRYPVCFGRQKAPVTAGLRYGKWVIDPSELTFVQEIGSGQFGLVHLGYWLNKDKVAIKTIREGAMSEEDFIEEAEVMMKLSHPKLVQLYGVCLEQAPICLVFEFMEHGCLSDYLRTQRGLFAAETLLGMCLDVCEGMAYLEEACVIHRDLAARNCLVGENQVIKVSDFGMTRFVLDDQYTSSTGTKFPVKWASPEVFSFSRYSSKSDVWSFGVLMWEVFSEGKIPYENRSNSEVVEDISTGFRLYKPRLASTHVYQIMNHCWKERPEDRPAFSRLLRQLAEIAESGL
Experimental: (§1) The degree of inhibition of a panel of kinases is determined using the in vitro HotSpot kinase assay (purified enzymes, ^33P-ATP, an appropriate substrate and 1 μM ATP).

LCK = LCK (Homo sapiens, UniProt P06239); experiment: Inhibition of a panel of kinases, in vitro HotSpot kinase assay: LCK; details: for IC50: 1 μM ATP, read-out: IC50 LCK; for LCK* IC50 relative to Btk IC50 value: fold relative to Btk IC50 value
BTK-WT = target: T2, BTK-WT (Homo sapiens, UniProt Q06187); experiment: Btk in vitro inhibitory activity (one of Method A TR-FRET, Method B electrophoretic mobility shift, Method C radiometric filter binding)
T2 construct: purified from insect cells as a full-length construct containing an N-terminal 6X-His tag; His6 (N); made in house; host or cells: insect cells (baculovirus Sf21 in Method B)

TXK = target: T3, TXK (Homo sapiens, UniProt P42681); experiment: Inhibition of a panel of kinases, in vitro HotSpot kinase assay: TXK; details: Table 15, C compounds; 1 μM ATP
T3 sequence (P42681 1-527): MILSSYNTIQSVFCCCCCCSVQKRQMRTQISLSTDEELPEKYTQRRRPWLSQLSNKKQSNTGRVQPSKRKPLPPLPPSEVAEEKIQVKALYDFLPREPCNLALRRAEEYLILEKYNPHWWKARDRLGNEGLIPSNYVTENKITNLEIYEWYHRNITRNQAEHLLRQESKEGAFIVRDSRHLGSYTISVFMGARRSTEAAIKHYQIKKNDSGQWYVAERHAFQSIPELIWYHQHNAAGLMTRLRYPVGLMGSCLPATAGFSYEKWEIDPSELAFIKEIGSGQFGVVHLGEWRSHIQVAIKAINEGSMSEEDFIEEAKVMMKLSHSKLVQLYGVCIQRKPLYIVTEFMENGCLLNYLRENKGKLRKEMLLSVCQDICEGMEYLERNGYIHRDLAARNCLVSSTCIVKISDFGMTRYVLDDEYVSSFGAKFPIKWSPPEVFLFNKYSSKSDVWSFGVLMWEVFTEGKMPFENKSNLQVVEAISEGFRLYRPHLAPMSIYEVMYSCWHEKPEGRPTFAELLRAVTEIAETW
Experimental: as §1

[1] = Table 13, A compounds, read-out: IC50 BTK-WT
[2] = Table 15, C compounds, read-out: IC50 BTK-WT

T2 sequence (Q06187 whole entry): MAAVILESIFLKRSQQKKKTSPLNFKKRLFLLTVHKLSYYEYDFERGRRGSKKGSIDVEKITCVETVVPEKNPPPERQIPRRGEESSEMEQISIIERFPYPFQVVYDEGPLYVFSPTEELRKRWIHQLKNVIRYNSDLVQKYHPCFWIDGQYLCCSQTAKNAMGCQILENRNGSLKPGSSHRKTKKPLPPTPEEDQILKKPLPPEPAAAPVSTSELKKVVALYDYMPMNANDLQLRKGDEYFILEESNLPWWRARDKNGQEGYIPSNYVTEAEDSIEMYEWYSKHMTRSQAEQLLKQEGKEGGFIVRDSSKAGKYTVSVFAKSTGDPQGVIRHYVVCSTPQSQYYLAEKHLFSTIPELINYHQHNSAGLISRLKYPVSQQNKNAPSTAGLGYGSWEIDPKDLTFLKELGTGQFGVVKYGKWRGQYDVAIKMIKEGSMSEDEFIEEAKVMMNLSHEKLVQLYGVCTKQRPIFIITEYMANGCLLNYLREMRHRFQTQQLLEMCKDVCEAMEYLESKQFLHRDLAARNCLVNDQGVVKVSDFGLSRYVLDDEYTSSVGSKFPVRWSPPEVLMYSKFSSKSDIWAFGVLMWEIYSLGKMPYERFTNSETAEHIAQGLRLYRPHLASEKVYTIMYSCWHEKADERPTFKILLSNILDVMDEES
Sequence of LCK (P06239 whole entry): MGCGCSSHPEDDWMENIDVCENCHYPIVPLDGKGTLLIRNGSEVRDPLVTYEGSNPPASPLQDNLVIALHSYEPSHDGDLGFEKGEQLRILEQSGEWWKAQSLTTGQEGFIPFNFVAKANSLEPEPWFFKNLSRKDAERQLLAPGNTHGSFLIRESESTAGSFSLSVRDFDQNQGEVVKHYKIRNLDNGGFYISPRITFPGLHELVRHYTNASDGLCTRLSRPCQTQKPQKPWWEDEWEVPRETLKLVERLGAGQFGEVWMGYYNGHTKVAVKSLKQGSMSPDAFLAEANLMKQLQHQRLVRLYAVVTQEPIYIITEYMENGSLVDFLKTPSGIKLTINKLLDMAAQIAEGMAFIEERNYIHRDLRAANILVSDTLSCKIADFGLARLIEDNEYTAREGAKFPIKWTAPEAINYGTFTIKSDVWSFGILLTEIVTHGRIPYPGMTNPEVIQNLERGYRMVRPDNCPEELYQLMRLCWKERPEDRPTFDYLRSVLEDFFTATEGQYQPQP

SMILES | IC50 (ITK; Table 13, A compounds) [nM] | IC50 (LCK; Table 13, A compounds) [nM] | IC50 (BTK-WT; [1]) [nM] | ITK* IC50 relative to Btk IC50 value (ITK) [x] | LCK* IC50 relative to Btk IC50 value (LCK) [x] | IC50 (BTK-WT; read-out: BTK-WT IC50) [nM] | also measured
C=CC(=O)N1CCC[C@@H](Nc2cnc(C(N)=O)c(Nc3ccc(C4CCN(C5CCCC5)CC4)cc3)n2)C1 [Example C-84, (R)-5-(1-acryloylpiperidin-3-ylamino)-3-(4-(1-cyclopentylpiperidin-4-yl)phenylamino)pyrazine-2-carboxamide] |  |  |  |  |  |  | IC50 (ITK; Table 15, C compounds): ≤ 10 nM; IC50 (TXK): ≤ 10 nM; IC50 (LCK; Table 15, C compounds): 10 to 100 nM; IC50 (BTK-WT; [2]): ≤ 10 nM
C=CC(=O)N1CC[C@@H](N(C)c2cnc(C(N)=O)c(Nc3ccc(C4CCN(C5CCCC5)CC4)cc3)n2)C1 [Example C-85, (R)-5-((1-acryloylpyrrolidin-3-yl)(methyl)amino)-3-(4-(1-cyclopentylpiperidin-4-yl)phenylamino) pyrazine-2-carboxamide] |  |  |  |  |  |  | IC50 (ITK; Table 15, C compounds): ≤ 10 nM; IC50 (TXK): ≤ 10 nM; IC50 (LCK; Table 15, C compounds): 100 to 1000 nM; IC50 (BTK-WT; [2]): ≤ 10 nM
C=CC(=O)N1CC[C@@H](N(C)c2nnc(C(N)=O)c(Nc3ccc(C(C)C)cc3)n2)C1 [Example C-41, (R)-3-((1-acryloylpyrrolidin-3-yl)(methyl)amino)-5-(4-isopropylphenylamino)-1,2,4-triazine-6-carboxamide] |  |  |  |  |  |  | IC50 (ITK; Table 15, C compounds): ≤ 10 nM; IC50 (TXK): ≤ 10 nM; IC50 (LCK; Table 15, C compounds): 1000 to 10000 nM; IC50 (BTK-WT; [2]): ≤ 10 nM
C=CC(=O)N1CCC[C@@H](N(C)c2cnc(C(N)=O)c(Nc3ccc(C(C)C)cc3)n2)C1 [Example C-42, (R)-5-((1-acryloylpiperidin-3-yl)(methyl)amino)-3-(4-isopropylphenylamino) pyrazine-2-carboxamide] |  |  |  |  |  |  | IC50 (ITK; Table 15, C compounds): 10 to 100 nM; IC50 (TXK): ≤ 10 nM; IC50 (LCK; Table 15, C compounds): 1000 to 10000 nM; IC50 (BTK-WT; [2]): ≤ 10 nM
C=CC(=O)N1CCC[C@@H](N(C)c2cnc(C(N)=O)c(Nc3ccc(C4(C)CCN(C5CCCC5)CC4)cc3)n2)C1 [Example C-44, (R)-5-((1-acryloylpiperidin-3-yl)(methyl)amino)-3-(4-(1-cyclopentyl-4-methylpiperidin-4-yl)phenylamino) pyrazine-2-carboxamide] |  |  |  |  |  |  | IC50 (ITK; Table 15, C compounds): ≤ 10 nM; IC50 (TXK): ≤ 10 nM; IC50 (LCK; Table 15, C compounds): < 10 nM; IC50 (BTK-WT; [2]): ≤ 10 nM
C[C@@H]1[C@H](NC(=O)N(C)C)CCCN1c1cnc(C(N)=O)c(Nc2ccc(C(=O)N3CCN(C)CC3)cc2)n1 [Example A-98, 5-[(2R,3R)-3-[(dimethylcarbamoyl)amino]-2-methylpiperidin-1-yl]-3-{[4-(4-methylpiperazine-1-carbonyl)phenyl]amino}pyrazine-2-carboxamide] | 1000 to 10000 | 100 to 1000 | ≤ 10 |  |  |  | 
CN1CCN(c2ccc(Nc3nc(N4CCC[C@@H](n5ccc6cc(C7CC7)ccc6c5=O)C4)cnc3C(N)=O)cc2)CC1 [Example A-99, 5-[(3R)-3-(6-cyclo-propyl-1-oxo-1,2-dihydroisoquinolin-2-yl)piperidin-1-yl]-3-{[4-(4-methylpiperazin-1-yl)phenyl]amino}pyrazine-2-carboxamide] | 100 to 1000 | 100 to 1000 | ≤ 10 |  |  |  | 
Cn1cc(Nc2nc(N3CCC[C@@H](NC(=O)c4ccc(C5CC5)cc4)C3)nnc2C(N)=O)cn1 [Example A-202, 3-[(3R)-3-(4-cyclopropylbenzamido)piper-idin-1-yl]-5-[(1-methyl-1H-pyrazol-4-yl)amino]-1,2,4-triazine-6-carboxamide] |  |  |  | 360 | 107 | < 10 | 
C[C@@H]1[C@H](NC(=O)c2ccc(C3CC3)cc2)CCCN1c1nnc(C(N)=O)c(Nc2cnn(C)c2)n1 [Example A-201, 3-[(2R,3R)-3-(4-cyclopropylbenzamido)-2-methylpiperidin-1-yl]-5-[(1-methyl-1H-pyrazol-4-yl)amino]-1,2,4-triazine-6-carboxamide] |  |  |  | 234 | 49 | < 10 | 

Second part, led by results:

IC50 (ITK; Table 13, A compounds) [nM] | IC50 (LCK; Table 13, A compounds) [nM] | IC50 (BTK-WT; [1]) [nM] | ITK* IC50 relative to Btk IC50 value (ITK) [x] | LCK* IC50 relative to Btk IC50 value (LCK) [x] | IC50 (BTK-WT; read-out: BTK-WT IC50) [nM] | SMILES | also measured
> 10000 | 1000 to 10000 | 10 to 100 |  |  |  | Cc1c(Nc2nc(N3CCC[C@@H](NC(=O)c4ccc(C5CC5)cc4)[C@H]3C)cnc2C(N)=O)cnn1C [Example A-191, 5-((2R,3)R-3-(4-cyclopropylbenzamido)-2-methylpiperidin-1-yl)-3-(1,5-dimethyl-1H-pyrazol-4-ylamino)pyrazine-2-carboxamide] | 
 |  |  | 99 | 88 | < 10 | C[C@@H]1[C@H](NC(=O)c2ccc(C(C)(C)O)cc2)CCCN1c1cnc(C(N)=O)c(Nc2cnn(C)c2)n1 [Example A-200, 5-((2R,3R)-3-(4-(2-hydroxypropan-2-yl)benzamido)-2-methyl-piperidin-1-yl)-3-(1-methyl-1H-pyrazol-4-yl-amino)pyrazine-2-carboxamide] | 
 |  |  | 133 | 112 | < 10 | C[C@@H]1[C@H](NC(=O)c2ccc(C3CC3)cc2)CCCN1c1cnc(C(N)=O)c(Nc2cnn(C(F)F)c2)n1 [Example A-198, 5-[(2R,3R)-3-(4-cyclopropylbenzamido)-2-methylpiperidin-1-yl]-3-{[1-(difluoromethyl)-1H-pyrazol-4-yl]amino}pyrazine-2-carboxamide] | 
100 to 1000 | 100 to 1000 | ≤ 10 |  |  |  | C[C@@H]1[C@H](NC(=O)N(C)C)CCCN1c1cnc(C(N)=O)c(Nc2ccc(N3CCN(C)CC3)cc2)n1 [Example A-100, 5-[(2R,3R)-3-[(dimethylcarbamoyl)amino]-2-methylpiperidin-1-yl]-3-{[4-(4-methylpiperazin-1-yl)phenyl]amino}pyrazine-2-carboxamide] | 
100 to 1000 | 100 to 1000 | ≤ 10 |  |  |  | C[C@@H]1[C@H](NC(=O)c2cc3c(n2C)CC(C)(C)C3)CCCN1c1cnc(C(N)=O)c(Nc2cnn(C)c2)n1 [Example A-193, N-((2R,3R)-1-(5-carbamoyl-6-(1-methyl-1H-pyrazol-4-ylamino)pyrazin-2-yl)-2-methylpiperidin-3-yl)-1,5,5-trimethyl-1,4,5,6-tetrahydrocyclo-penta[b]pyrrole-2-carboxamide] | 
 |  |  | 135 | 102 | < 10 | C[C@@H]1[C@H](NC(=O)c2ccc(C3CC3)cc2)CCCN1c1cnc(C(N)=O)c(Nc2cnn(C3CC3)c2)n1 [Example A-205, 3-[(1-cyclopropyl-1H-pyrazol-4-yl)amino]-5-[(2R,3R)-3-(4-cyclopropylbenzamido)-2-methylpiperidin-1-yl]pyrazine-2-carboxamide] | 
 |  |  | 157 | 63 | < 10 | C[C@@H]1[C@H](NC(=O)c2ccc(C3COC3)cc2)CCCN1c1cnc(C(N)=O)c(Nc2cnn(C)c2)n1 [Example A-206, 3-(1-methyl-1H-pyrazol-4-ylamino)-5-((2R,3R)-2-methyl-3-(4-(oxetan-3-yl)benzamido)piperidin-1-yl)pyrazine-2-carboxamide] | 
 |  |  | 787 | 684 | < 10 | C[C@@H]1[C@H](NC(=O)c2ccc(C(C)(C)C)cc2)CCCN1c1cnc(C(N)=O)c(Nc2cnn(C)c2)n1 [Example A-203, 5-((2R,3R)-3-(4-tert-butylbenzamido)-2-methylpiperidin-1-yl)-3-(1-methyl-1H-pyrazol-4-ylamino)pyrazine-2-carboxamide] | 
> 10000 | > 10000 | 10 to 100 |  |  |  | Cc1nn(C)cc1Nc1nc(N2CCC[C@@H](NC(=O)c3ccc(C4CC4)cc3)[C@H]2C)cnc1C(N)=O [Example A-192, 5-((2R,3R)-3-(4-cyclopropylbenzamido)-2-methylpiperidin-1-yl)-3-(1,3-dimethyl-1H-pyrazol-4-ylamino)pyrazine-2-carboxamide] | 

Reference: patent US20210070748A1, “INHIBITORS OF BRUTONS TYROSINE KINASE” (Pharmacyclics LLC, priority 2015, published 2021)
